Measurements reported in ChEMBL document CHEMBL1149917, “Peptidomimetic growth hormone secretagogues: synthesis and biological activities of analogs varied at the indole nucleus of the prototypical spiropiperidine L-162,752” (Bioorg Med Chem Lett, 1996).

organism: Rattus norvegicus; assay: Compound was tested for intrinsic growth hormone(GH) secretory potency in the rat pituitary cell assay; type: functional; details: Pituitary gland cell

| Compound | EC50 [nM] |
| --- | --- |
| CC(C)(N)CC(=O)N[C@H](COCc1ccccc1)C(=O)N1CCC2(CCc3ccccc32)CC1 | > 1000 |
| CC(C)(N)C(=O)N[C@H](Cc1ccccc1)C(=O)N1CCC2(CCc3ccccc32)CC1 | 250 |
| CC(C)(N)C(=O)N[C@H](Cc1cccc2ccccc12)C(=O)N1CCC2(CCc3ccccc32)CC1 | 1100 |
| C[C@@H](O)CNC(C)(C)CC(=O)N[C@H](COCc1ccccc1)C(=O)N1CCC2(CCc3ccccc32)CC1 | 240 |
| CC(C)(N)C(=O)N[C@H](Cc1ccc2ccccc2c1)C(=O)N1CCC2(CCc3ccccc32)CC1 | 900 |
| C[C@@H](O)CNC(C)(C)CC(=O)N[C@H](CCc1ccccc1)C(=O)N1CCC2(CCc3ccccc32)CC1 | 200 |
| CC(C)(N)CC(=O)N[C@H](CCc1ccccc1)C(=O)N1CCC2(CCc3ccccc32)CC1 | > 1000 |
| CC(C)(N)C(=O)N[C@H](CSCc1ccccc1)C(=O)N1CCC2(CCc3ccccc32)CC1 | 65 |
| CC(C)(CC(=O)N[C@H](CCc1ccccc1)C(=O)N1CCC2(CCc3ccccc32)CC1)NC[C@H](O)CO | 170 |
| CC(C)(N)C(=O)N[C@H](Cc1csc2ccccc12)C(=O)N1CCC2(CCc3ccccc32)CC1 | 490 |
